Experimental data taken from patent publication US8729052B2, “Composition for the prevention and treatment of alopecia, or for hair growth” (Phytos Co., Ltd., priority 2008, dated 2014).
Entries after “also recorded” stand apart in the source; their conditions may differ.

Legend:
[1] = system: Balb/c mice, depilated area; assay: Test for hair growth in Balb/c mice (2), once a day for four weeks; format: in vivo; details: applied once a day for four weeks
From the text: Balb/c mice, 5-6 weeks old, were purchased and shaved on the side to remove hair partially, followed by applying a depilatory cream to the shaved area to remove hair therefrom completely. The mice which were not completely depilated were excluded from the test. The suitable mice were randomly housed in cages at a population of three per cage. A total of five cages were employed.
The mice were left for one day after hair removal, and then the depilated area was coated once a day with the NAPS-1-P-containing liposomes prepared in Example 1. A total of 14 rounds of application were conducted. Hair growth was compared between treated groups and non-treated groups.
The NAPS-1-P 0.5%-containing liposomes (Example 1), the NAPS-1-P 1.0%-containing liposomes (Example 2), and the PhS-1-P 0.5%-containing liposomes (Example 4) were tested for hair growth activity in the same manner as in Experimental Example 1, with the exception that they were applied once a day for four weeks. In this context, Rogaine 5% (minoxidil 5% solution) was used as a positive control.

[2] = system: CAM (chorioallantoic membrane); assay: Test for angiogenic activity, CAM (chorioallantoic membrane) assay; format: in vivo, chicken; details: for Angiogenic activity compared to the control: CAM assay, Table 3 and FIG. 5
Description: NAPS-1-P 0.5%-containing liposomes and the PhS-1-P 0.5%-containing liposomes, respectively prepared in Examples 1 and 4, were assayed for angiogenesis, with the use of phosphate buffered saline as a negative control, sphingosine-1-phosphate (PS-1-P) as a positive control, and the angiogenesis inhibitor trimethyl phytosphingosine (TMP) as a suppressive control.
For angiogenesis assay, CAM (chorioallantoic membrane) was used as a model. CAM from developing chicken eggs is routinely used in biological and biomedical research to investigate angiogenesis.
Fertile hen's eggs which were within one day after being laid, were purchased. Three days later, 6 mL of the white was removed from the fertile hen's eggs using a syringe, as illustrated in i of FIG. 4. Afterward, the eggs were opened at the top, as illustrated in ii of FIG. 4. From three days after egg-laying, the embryo started to develop. The membrane surrounding the embryo is CAM. Then, a cover slip on which a test drug was dropwise loaded and dried was placed on CAM, as illustrated in iii of FIG. 4. After the lapse of three days, the eggs were examined for drug-induced angiogenesis under a microscope, as illustrated in iv of FIG. 4.

[3] = microscopic observation three days after placing test drug on CAM

Molecule	Hair growth promoting activity, comparison between substances, concentrations or with minoxidil 5% solution (FIGS. 2 and 3) [1]	Angiogenic activity compared to the control [2]	Angiogenesis results: count graded + (weakly promotive of angiogenesis) [2, 3]	Angiogenesis results: count graded ++ (highly promotive of angiogenesis) [2, 3]	Angiogenesis results: count graded +/− (insignificantly promotive of angiogenesis) [2, 3]	Angiogenesis results: count graded − (weakly inhibitive of angiogenesis) [2, 3]	Angiogenesis results: count graded −− (highly inhibitive of angiogenesis) [2, 3]
CCCCCCCCCCCCCC[C@@H](O)[C@@H](O)[C@H](COP(=O)(O)O)NC(C)=O [NAPS-1-P, N-acetylphytosphingosine-1-phosphate]	superior of NAPS-1-P to PhS-1-P	significant angiogenic activity; also recorded: peak activity	3	7			
CCCCCCCCCCCCCC[C@@H](O)[C@@H](O)[C@@H](N)COP(=O)(O)O [PhS-1-P, phytosphingosine-1-phosphate]		significant angiogenic activity	5	4	1		
trimethyl phytosphingosine [TMP, reference compound]						2	8
CCCCCCCCCCCCC/C=C/[C@@H](O)[C@@H](N)COP(=O)(O)O [PS-1-P, sphingosine-1-phosphate, reference compound]			5	4	1		
